Test results: paper PMC5728534 (PLoS ONE, 2017)
Substitutions are numbered along the chain they refer to. Like-named read-outs stand apart in the source and are kept apart here.

What was measured:
OCT1*1C (Phe160Leu) = molecular target: T1, OCT1*1C (Phe160Leu) (Homo sapiens, UniProt O15245); conditions: 1 and 10 μM ranitidine, 2 min
T1 sequence (O15245 1-554): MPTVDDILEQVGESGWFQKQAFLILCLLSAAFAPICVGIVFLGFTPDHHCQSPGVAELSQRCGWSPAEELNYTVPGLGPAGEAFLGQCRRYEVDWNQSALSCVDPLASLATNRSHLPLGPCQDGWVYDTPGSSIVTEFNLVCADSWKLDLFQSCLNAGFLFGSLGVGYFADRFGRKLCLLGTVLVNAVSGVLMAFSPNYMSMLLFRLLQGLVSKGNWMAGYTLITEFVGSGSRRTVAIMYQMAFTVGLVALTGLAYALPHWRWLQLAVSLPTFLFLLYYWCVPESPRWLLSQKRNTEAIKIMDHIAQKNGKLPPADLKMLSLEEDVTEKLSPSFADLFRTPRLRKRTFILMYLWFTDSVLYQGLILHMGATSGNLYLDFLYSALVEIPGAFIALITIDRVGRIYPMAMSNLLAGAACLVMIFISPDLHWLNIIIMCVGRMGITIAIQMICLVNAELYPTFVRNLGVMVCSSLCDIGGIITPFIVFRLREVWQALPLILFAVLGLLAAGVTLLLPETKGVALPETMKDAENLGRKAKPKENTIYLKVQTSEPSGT
Description: (§1) HEK293 or CHO cells overexpressing the human OCT1 alleles *1A (characterized by the amino acid substitution Met408Val), *1B, *1C (Phe160Leu), *1D (Pro341Leu/Met408Val), *2 (Met420del), *3 (Arg61Cys), *4 (Gly401Ser), *5 (Gly465Arg/Met420del), *6 (Cys88Arg/Met420del), *7 (Ser14Phe), *8A (Arg488Met), *8B (Arg488Met/Met408Val), *9 (Pro117Leu), *10 (Ser189Leu), *11 (Ile449Thr), *12 (Ser29Leu), or *13 (Thr245Met), the human OCT2 reference and variant alleles (Ala270Ser), human OCT3, and the control cells (transfected with the empty pcDNA5 vector) were generated by targeted chromosomal integration using the Flp-In™ System (Life Technologies, Darmstadt, Germany).
(§2) Six hundred thousand HEK293 or CHO cells were plated per well in 12-well plates (pre-coated with poly-D-lysine) and were grown for 48 hours to reach confluence. Cells were kept at 37°C and 5% CO2 in DMEM (HEK293) or RPMI (CHO), supplemented with 10% FCS, 100 U/ml penicillin, and 100 μg/ml streptomycin. Uptake experiments were performed at pH 7.4 using HBSS supplemented with 10 mM HEPES buffer (herein referred to as HBSS+). […]
(§3) For all transport measurements, the intracellular amount of substrate was normalized to the total amount of protein of the sample as measured using the bicinchoninic acid assay [49].
(§4) For quantification of intracellular substrates, the cell debris were removed by centrifugation at 17,000 x g for 10 min. […]

OCT1 = conditions: literature data; cited from earlier work
OCT1*2 (Met420del) = molecular target: T2, OCT1*2 (Met420del) (Homo sapiens, UniProt O15245, DEL420-420/L160F); experiment: Inhibition by ranitidine of OCT1-mediated substrate uptake, OCT1*2 allele, HEK293 cells; format: cell-based; design: expressed in transfected cells; host or cells: HEK293 T-REx (Flp-In)
T2 sequence (O15245 with tags, fused parts or gaps L160F/DEL420-420): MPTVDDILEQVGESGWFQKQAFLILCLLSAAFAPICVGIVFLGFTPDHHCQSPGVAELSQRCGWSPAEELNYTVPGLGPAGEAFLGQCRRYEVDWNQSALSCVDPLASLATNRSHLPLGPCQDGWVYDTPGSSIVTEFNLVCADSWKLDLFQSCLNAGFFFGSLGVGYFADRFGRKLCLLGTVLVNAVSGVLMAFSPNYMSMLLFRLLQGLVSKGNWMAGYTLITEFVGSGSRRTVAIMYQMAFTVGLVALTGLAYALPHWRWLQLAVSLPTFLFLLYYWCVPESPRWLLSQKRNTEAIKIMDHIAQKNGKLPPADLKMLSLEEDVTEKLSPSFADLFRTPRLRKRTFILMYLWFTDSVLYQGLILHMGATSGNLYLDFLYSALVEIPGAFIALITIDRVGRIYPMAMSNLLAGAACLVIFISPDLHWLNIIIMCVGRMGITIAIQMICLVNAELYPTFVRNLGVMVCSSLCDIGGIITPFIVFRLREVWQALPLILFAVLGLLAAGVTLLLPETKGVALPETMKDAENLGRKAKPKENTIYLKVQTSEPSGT
Description: as §1
Cells were kept at 37°C and 5% CO2 in DMEM (HEK293) or RPMI (CHO), supplemented with 10% FCS, 100 U/ml penicillin, and 100 μg/ml streptomycin. Uptake experiments were performed at pH 7.4 using HBSS supplemented with 10 mM HEPES buffer (herein referred to as HBSS+). Cells were washed once with 1 ml pre-warmed HBSS+ buffer (37°C). […] Cells were washed twice with 2 ml ice-cold HBSS+ and lysed in 500 μl lysis buffer.
The intracellular concentration of MPP^+ was determined using liquid scintillation counting of radioactively labeled substrate. To this end, 400 μl cell lysate was measured with 9 ml Aquasafe Plus liquid scintillator using the Scintillation Counter LS6500 (Beckman Coulter, Krefeld, Germany). Intracellular ASP^+ concentrations were determined using fluorescence spectroscopy.
as §3
For quantification of intracellular substrates, the cell debris were removed by centrifugation at 17,000 x g for 10 min. Four-hundred μl of the supernatant was evaporated to dryness under nitrogen flow at 40°C. The residue was reconstituted in 200 μl 0.1% formic acid and 10 μl were injected into the LC-MS/MS. For the LC-MS/MS analysis an API 4000™ system tandem mass spectrometer (AB SCIEX, Darmstadt, Germany) was used. Samples were separated using a Brownlee SPP RP-Amide Column (4.6x100 mm, 2.7 μm; PerkinElmer), with a SecurityGuard C18, 4x2 mm pre-column (Phenomenex, Aschaffenburg, Germany).
Nonlinear regression to the Michaelis-Menten equation was performed to determine Km and vmax using GraphPad Prism version 6 (GraphPad Software Inc., La Jolla, CA, USA). Nonlinear regression to the Hill equation v = vmin+(vmax-vmin)/1+([I]/IC50)^-Hillslope was performed to determine IC50 using SigmaPlot version 12.0 (Systat Software, San Jose, California, USA).

OCT2 = molecular target: T3, OCT2 (Homo sapiens, UniProt O15244, S270A); experiment: Ranitidine uptake in HEK293 cells overexpressing OCT2 reference (Ala270); format: in vitro ADME; conditions: 1 μM ranitidine, 2 min
T3 construct: expressed in transfected cells; host or cells: HEK293 T-REx (Flp-In)
T3 sequence (O15244 1-555 S270A): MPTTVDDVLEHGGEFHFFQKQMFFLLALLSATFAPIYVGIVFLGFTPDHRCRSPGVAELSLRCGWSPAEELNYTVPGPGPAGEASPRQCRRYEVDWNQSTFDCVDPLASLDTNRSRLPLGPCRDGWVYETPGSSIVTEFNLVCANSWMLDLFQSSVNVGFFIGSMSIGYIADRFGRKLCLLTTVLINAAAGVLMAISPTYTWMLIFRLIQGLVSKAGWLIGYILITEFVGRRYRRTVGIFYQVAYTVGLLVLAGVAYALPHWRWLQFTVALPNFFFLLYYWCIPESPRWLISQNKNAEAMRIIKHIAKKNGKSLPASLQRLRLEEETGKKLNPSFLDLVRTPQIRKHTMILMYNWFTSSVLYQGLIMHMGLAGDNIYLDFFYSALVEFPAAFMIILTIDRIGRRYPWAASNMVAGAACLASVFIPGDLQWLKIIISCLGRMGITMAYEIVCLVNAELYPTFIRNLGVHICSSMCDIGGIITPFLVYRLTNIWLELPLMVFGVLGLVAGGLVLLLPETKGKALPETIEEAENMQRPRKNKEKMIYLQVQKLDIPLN
Description: as §1, §2, §3, §4

OCT2 Ser270 (Ala270Ser) = molecular target: T4, OCT2 Ser270 (Ala270Ser) (Homo sapiens, UniProt O15244); experiment: Ranitidine uptake in HEK293 cells overexpressing OCT2 variant (Ser270); format: in vitro ADME; conditions: 1 μM ranitidine, 2 min, not significant
T4 sequence (O15244 1-555): T3 sequence (O15244 1-555 S270A) with A270S
Description: as §1, §2, §3, §4

SMILES: CNC(=C[N+](=O)[O-])NCCSCc1ccc(CN(C)C)o1 [ranitidine, Ranitidine]
- uptake of ranitidine compared to the reference allele (OCT1*1C (Phe160Leu)): no significant difference
- Km (OCT1): 70 ± 9 µM
- IC50 at 2 min (OCT1*2 (Met420del); human, HEK293 cells overexpressing OCT1*2 (Met420del), pH 7.4, probe metformin (100 μM), substrate 100 μM metformin, OCT1*2, 2 min, HEK293): 14.8 µM
- inhibition at 2 min (OCT1*2 (Met420del); human, HEK293 cells overexpressing OCT1*2 (Met420del), pH 7.4, probe metformin (100 μM), read-out: inhibition of metformin uptake): 50%
- inhibition at 2 min (OCT1*2 (Met420del); human, HEK293 cells overexpressing OCT1*2 (Met420del), pH 7.4, probe morphine (0.1 μM), read-out: inhibition of morphine uptake): ≤ 30%
- inhibition at 2 min (OCT1*2 (Met420del); human, HEK293 cells overexpressing OCT1*2 (Met420del), pH 7.4, high concentrations expected in the gastrointestinal tract, all substrates tested, OCT1*2, read-out: inhibition of substrate uptake): > 70%
- IC50 (OCT1*2 (Met420del); substrate 0.1 μM MPP+, OCT1*2, 2 min, HEK293): 34.4 µM
- IC50 (OCT1*2 (Met420del); substrate 0.1 μM morphine, OCT1*2, 2 min, HEK293): 19.5 µM
- IC50 (OCT1*2 (Met420del); substrate 1 μM ASP+, OCT1*2, 2 min, HEK293): 155 µM
- ranitidine uptake, OCT2-overexpressing compared to control cells (OCT2): 3.3 fold
- reduction of ranitidine uptake, Ser270 allele in comparison to the Ala270 allele (OCT2 Ser270 (Ala270Ser)): 9%
